The values below come from patent US20050208549A1, “Testing endosymbiont cellular organelles and compounds identifiable therewith” (priority 2000, published 2005).

The subject of series [1] is peripheral blood mononuclear cells (PBMCs). Description: NASBA ratio of mitochondrial RNA to chromosome-encoded RNA in cultured PBMCs. It counts as cell-based, human (healthy blood donor). The settings on record: culture period of five days, 6 μM and 60 μM. Here is the method: (§1) In Table 1, the primers and probes used in the examples are summarized. Standard NASBA nucleic acid amplification reactions were performed in a 20 μl reaction volume and contained: 40 mM Tris-pH 8.5, 70 mM KCl, 12 mM MgCl2, 5 mM dithiothreitol, 1 mM dNTPs (each), 2 mM rNTPs (each), 0.2 μM primer (each), 0.05 μM molecular beacon, 375 mM sorbitol, 0.105 μg/μl bovine serum albumin, 6.4 units AMV RT, 32 units T7 RNA polymerase, 0.08 units RNAse H and input nucleic acid. The complete mixture, except the enzymes, sorbitol and/or bovine serum albumin was, prior to adding the enzyme mixture, heated to 65° C. for two minutes in order to denature any secondary structure in the RNA and to allow the primers to anneal. After cooling the mixture to 41° C., the enzymes were added. The amplification took place at 41° C. for 90 minutes in a fluorimeter (CytoFluor 2000) and the fluorescent signal was measured every minute (using the filter set 530/25 nm and 485/30 nm). For amplification of DNA target sequences, the 65° C. denaturation step was replaced with a 95° C. denaturation step for two to five minutes.
To achieve quantification, a dilution series of target sequences for a particular primer set was amplified and the time points at which the reactions became positive (the time to positivity, TTP) were plotted against the input amounts of nucleic acid. This way a calibration curve was created that could be used to read TTP values of reactions with unknown amounts of input and deduce the input amount.
Cells (fibroblasts and PBMCs) were cultured under standard conditions in standard media known to persons skilled in the art with the addition of drugs or putative toxic or stimulating compounds as defined in the examples. […] A small aliquot of the isolated nucleic acid was analyzed on an agarose gel and the remainder stored at −80° C. until further analysis. […]

For series [2] the following is noted: Peripheral atrophy, Lipodystrophy; d4T > others; cited from earlier work.
The subject of series [3] is Fibroblast cells. Description: NASBA ratio of mitochondrial DNA to chromosomal DNA in cultured fibroblast cells. It counts as cell-based. The settings on record: culture period of four weeks, antiviral drugs at 3 μM and 30 μM. Here is the method: as §1, with “For amplification of DNA target sequences, the 65° C. denaturation step was replaced with a 95° C. denaturation step for two to five minutes.” left out
(§2) To achieve quantification, a dilution series of target sequences for a particular primer set was amplified and the time points at which the reactions became positive (the time to positivity, TTP) were plotted against the input amounts of nucleic acid. This way a calibration curve was created that could be used to read TTP values of reactions with unknown amounts of input and deduce the input amount. […]

Series [4] concerns Fibroblast cells. Briefly: NASBA ratio of mitochondrial RNA to chromosomal DNA in cultured fibroblast cells. It counts as cell-based. As to conditions: culture period of four weeks, antiviral drugs at 3 μM and 30 μM. Here is the method:
as §1, with “For amplification of DNA target sequences, the 65° C. denaturation step was replaced with a 95° C. denaturation step for two to five minutes.” left out
as §2

Series [5] deals with Fibroblast cells. Description: NASBA ratio of mitochondrial RNA to chromosome-encoded RNA in cultured fibroblast cells. The series is classed as cell-based. The settings on record: culture period of four weeks, antiviral drugs at 3 μM and 30 μM. Here is the method:
as §1, with “For amplification of DNA target sequences, the 65° C. denaturation step was replaced with a 95° C. denaturation step for two to five minutes.” left out
as §2

Series [6] has as its system Fibroblast cells. Description: NASBA ratio of chromosome-encoded RNA to chromosomal DNA in cultured fibroblast cells. It counts as cell-based. As to conditions: culture period of four weeks, antiviral drugs at 3 μM and 30 μM. The method, then:
as §1, with “For amplification of DNA target sequences, the 65° C. denaturation step was replaced with a 95° C. denaturation step for two to five minutes.” left out
as §2

Series [7] relates to Fibroblast cells. Description: NASBA ratio of mitochondrial RNA to mitochondrial DNA in cultured fibroblast cells. It counts as cell-based. The settings on record: culture period of four weeks, antiviral drugs at 3 μM and 30 μM. Here is the method:
as §1, with “For amplification of DNA target sequences, the 65° C. denaturation step was replaced with a 95° C. denaturation step for two to five minutes.” left out
as §2

Take `Cc1cn([C@H]2C=C[C@@H](CO)O2)c(=O)[nH]c1=O` [D4T]: the “change in ratio of mitochondrial RNA to chromosome-encoded RNA” value in series [1] was “no measurable change”. Besides, in series [2], the “Rate (%) of mitochondrial toxicity, affected organ Fat” value is given as 50%.
`CC[n+]1c(-c2ccccc2)c2cc(N)ccc2c2ccc(N)cc21` [ethidium bromide]: in the series on Fibroblast cells [3], the “change in mitochondrial DNA to chromosomal DNA ratio” value was “decline in mitochondrial DNA content”. The “change in mitochondrial RNA to chromosomal DNA ratio” value in the series with Fibroblast cells [4] is listed as “decline in mitochondrial RNA content”. In the series with Fibroblast cells [5], the “change in mitochondrial RNA to chromosome-encoded RNA ratio” value was “decline in mitochondrial RNA content”. In the series with Fibroblast cells [6], the “change in ratio of chromosome-encoded RNA and chromosomal DNA” value is listed as “no measurable change”. Moreover, the “change in mitochondrial RNA to mitochondrial DNA ratio” value in the series on Fibroblast cells [7] was “decline in mitochondrial RNA and DNA content”.
